Patent US20240148821A1, “PHARMACEUTICAL USE OF CYCLIC PEPTIDE COMPOUND” (CHUGAI SEIYAKU KABUSHIKI KAISHA, priority 2021, published 2024)
Numbered stars: 1 amine (or outer) side, 2 acyl side, 3 side chain; on linkers, the order of the positions; unused ones are H or OH. Bridge positions count the residues as written; N and C are the ends. Square brackets hold non-standard residues; d marks the D form. Peptide text beside a SMILES is read from it. * marks the point of attachment. hPhe(3-Cl-4-CF3) = N[C@@H](CCc1ccc(C(F)(F)F)c(Cl)c1)C(=O)O; hPhe(3-F,4-CF3) = N[C@@H](CCc1ccc(C(F)(F)F)c(F)c1)C(=O)O; NEtPhe(4-CF3) = CCN[C@@H](Cc1ccc(C(F)(F)F)cc1)C(=O)O; hPhe(4-CF3) = N[C@@H](CCc1ccc(C(F)(F)F)cc1)C(=O)O; Phe(4-CHF2) = N[C@@H](Cc1ccc(C(F)F)cc1)C(=O)O; NMePhe(4-Cl) = CN[C@@H](Cc1ccc(Cl)cc1)C(=O)O; NMePhe(4-Me) = CN[C@@H](Cc1ccc(C)cc1)C(=O)O; X3 = O=C(CN(C1CC2(C1)CC(F)(F)C2)[*:1])[*:2]; NMedβ3hAla = C[C@H](CC(=O)[*:2])N(C)[*:1]; NMeGly(cPent) = CN[C@H](C(=O)O)C1CCCC1; NMeCha = CN[C@@H](CC1CCCCC1)C(=O)O; Hyp = O=C(O)[C@@H]1C[C@@H](O)CN1; NMeChg = CN[C@H](C(=O)O)C1CCCCC1; NMeI = CC[C@H](C)[C@H](NC)C(=O)O; N(CH2CH2)2CF2 = FC1(F)CCN(*)CC1; NMeD = CN[C@@H](CC(=O)O)C(=O)O; dNMeD = CN[C@H](CC(=O)O)C(=O)O; NMeL = CN[C@@H](CC(C)C)C(=O)O; NMeV = CN[C@H](C(=O)O)C(C)C; d(β3hA) = C[C@@H](N)CC(=O)O; NMeS = CN[C@@H](CO)C(=O)O; Morpholide = C1CN(*)CCO1; NMeA = CN[C@@H](C)C(=O)O; NMeAib = CNC(C)(C)C(=O)O; Piperidide = C1CCN(*)CC1; Pyrrolidide = C1CCN(*)C1; dNMeA = CN[C@H](C)C(=O)O; Ac5c = NC1(C(=O)O)CCCC1; Aze = O=C(O)[C@@H]1CCN1; Ac4c = NC1(C(=O)O)CCC1; Sar = CNCC(=O)O; Propyl = CCC*

What was measured:
[1] = target: protein-protein interaction between Kras and SOS1 (biotin-tagged human Kras loaded with GDP, His-tagged human SOS1) (Homo sapiens (Human), UniProt P01116, G12D); assay: Protein-protein interaction inhibition between Kras and SOS1 (KrasG12D-SOS PPI) using AlphaScreen; assay type: biochemical; conditions: AlphaScreen; biotin-tagged human Kras loaded with GDP, His-tagged human SOS1; read-out: KRAS G12D-SOS PPI IC50;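 further: kras produced in E. coli, Ni-coupled donor beads and streptavidin acceptor beads, excitation 680 nm with emission detected at 520–620 nm via singlet oxygen transfer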
[2] = system: Human pancreatic cancer cell line AsPC-1 (G12D mutation Kras); assay: AsPC-1 cell growth inhibition (AsPC-1 CGI); assay type: cell-based; conditions: read-out: AsPC-1 cell growth inhibition, 50% growth inhibitory concentration (IC50 value); 96 hours, CellTiter-Glo, values classified in ranges

Row | SMILES | IC50 [1] [nM] | IC50 [2] [nM]
1 | CC[C@H](C)[C@@H]1NC(=O)[C@H](CC(C)C)N(C)C(=O)C[C@@H](C(=O)N2CCCCC2)N(C)C(=O)[C@H](C2CCCCC2)N(C)C(=O)C2(CCCC2)NC(=O)CN(C2CC3(C2)CC(F)(F)C3)C(=O)[C@H](CCc2ccc(C(F)(F)F)c(Cl)c2)NC(=O)CN(C)C(=O)[C@H](CC2CCCCC2)N(C)C(=O)CN(C)C(=O)CN(C)C1=O [Compound 2035, (11S,17S,26S,29S,33S,36S)-11-[2-[3-chloro-4-(trifluoromethyl)phenyl]ethyl]-36-cyclohexyl-17-(cyclohexylmethyl)-9-(2,2-difluorospiro[3.3]heptan-6-yl)-29-isobutyl-15,18,21,24,30,34,37-heptamethyl-26-[(1S)-1-methylpropyl]-33-(piperidine,-1-carbonyl)-6,9,12,15,18,21,24,27,30,34,37-undecazaspiro[4.33]octatriacontane-7,10,13,16,19,22,25,28,31,35,38-undecone] ([NMeL]I[Sar][Sar][NMeCha][Sar][hPhe(3-Cl-4-CF3)][X3][Ac5c][NMeChg][NMeD]-Piperidide; lactam N-11) | 24 | > 500
2 | CC[C@H](C)[C@@H]1NC(=O)[C@H](CC(C)C)N(C)C(=O)C[C@@H](C(=O)N2CCOCC2)N(C)C(=O)[C@H](C2CCCC2)N(C)C(=O)C2(CCCC2)NC(=O)[C@@H]2CCCN2C(=O)[C@H](CCc2ccc(C(F)(F)F)c(F)c2)NC(=O)CN(C)C(=O)[C@H](CC2CCCCC2)N(C)C(=O)[C@@H]2CCN2C(=O)[C@H](C)N(C)C1=O [Compound 390] ([NMeL]I[NMeA][Aze][NMeCha][Sar][hPhe(3-F,4-CF3)]P[Ac5c][NMeGly(cPent)][NMeD]-Morpholide; lactam N-11) | 0.77 | ≤ 20
3 | CCO[C@@H]1C[C@H]2C(=O)NC3(CCC3)C(=O)N(C)[C@@H](C3CCCC3)C(=O)N(C)[C@H](C)CC(=O)N(C)[C@@H](CC(C)C)C(=O)N[C@@H]([C@@H](C)CC)C(=O)N(C)[C@@H](C)C(=O)N3CC[C@H]3C(=O)N(CC)[C@@H](Cc3ccc(C(F)(F)F)cc3)C(=O)N(C)CC(=O)N[C@@H](CCc3ccc(C(F)(F)F)c(Cl)c3)C(=O)N2C1 [Compound 594] (cyclo([Ac4c][NMeGly(cPent)][NMedβ3hAla][NMeL]I[NMeA][Aze][NEtPhe(4-CF3)][Sar][hPhe(3-Cl-4-CF3)][Hyp](Et))) | 0.54 | ≤ 20
4 | CC[C@H](C)[C@@H]1NC(=O)[C@H](CC(C)C)N(C)C(=O)C[C@@H](C)NC(=O)[C@H](C2CCCCC2)N(C)C(=O)C2(CCCC2)NC(=O)[C@@H]2CCCN2C(=O)[C@H](CCc2ccc(C(F)(F)F)c(Cl)c2)NC(=O)CN(C)C(=O)[C@H](Cc2ccc(C)cc2)N(C)C(=O)[C@@H]2CCN2C(=O)[C@H](C)N(C)C1=O [Compound 1747] (cyclo([Ac5c][NMeChg][d(β3hA)][NMeL]I[NMeA][Aze][NMePhe(4-Me)][Sar][hPhe(3-Cl-4-CF3)]P)) | 16 | > 500
5 | CC[C@H](C)[C@@H]1NC(=O)[C@H](CC(C)C)N(C)C(=O)C[C@@H](C)N(C)C(=O)[C@H]([C@@H](C)CC)N(C)C(=O)C2(CCCC2)NC(=O)[C@@H]2CCCN2C(=O)[C@H](CCc2ccc(C(F)(F)F)c(Cl)c2)NC(=O)CN(C)C(=O)[C@H](CC2CCCCC2)N(C)C(=O)[C@@H]2CCN2C(=O)[C@H](C)N(C)C1=O [Compound 1733] (cyclo([Ac5c][NMeI][NMedβ3hAla][NMeL]I[NMeA][Aze][NMeCha][Sar][hPhe(3-Cl-4-CF3)]P)) | 130 | > 500
6 | CC[C@H](C)[C@@H]1NC(=O)[C@H](CC(C)C)N(C)C(=O)C[C@@H](C(=O)N2CCCCC2)N(C)C(=O)[C@H](C2CCCCC2)N(C)C(=O)C2(CCCC2)NC(=O)[C@H](C)NC(=O)[C@H](CCc2ccc(C(F)(F)F)c(Cl)c2)NC(=O)CN(C)C(=O)[C@H](CC2CCCCC2)N(C)C(=O)CN(C)C(=O)CN(C)C1=O [Compound 205] ([NMeL]I[Sar][Sar][NMeCha][Sar][hPhe(3-Cl-4-CF3)]A[Ac5c][NMeChg][NMeD]-Piperidide; lactam N-11) | 0.49 | > 500
7 | CC[C@H](C)[C@@H]1NC(=O)[C@H](CC(C)C)N(C)C(=O)C[C@@H](C(=O)N2CCCCC2)N(C)C(=O)[C@H]([C@@H](C)CC)N(C)C(=O)C2(CCCC2)NC(=O)[C@@H]2CCCN2C(=O)[C@H](CCc2ccc(C(F)(F)F)c(F)c2)NC(=O)CN(C)C(=O)[C@H](Cc2ccc(C)cc2)N(C)C(=O)[C@@H]2CCN2C(=O)[C@H](C)N(C)C1=O [Compound 678] ([NMeL]I[NMeA][Aze][NMePhe(4-Me)][Sar][hPhe(3-F,4-CF3)]P[Ac5c][NMeI][NMeD]-Piperidide; lactam N-11) | 1.7 | ≤ 20
8 | CC[C@H](C)[C@@H]1NC(=O)[C@H](CC(C)C)N(C)C(=O)C[C@@H](C)N(C)C(=O)[C@H](CC(C)C)NC(=O)C(C)(C)N(C)C(=O)[C@H](CC(C)C)NC(=O)[C@H](CCc2ccc(C(F)(F)F)c(F)c2)NC(=O)CN(C)C(=O)[C@H](Cc2ccc(Cl)cc2)N(C)C(=O)CN(C)C(=O)CN(C)C1=O [Compound 797] (cyclo(I[Sar][Sar][NMePhe(4-Cl)][Sar][hPhe(3-F,4-CF3)]L[NMeAib]L[NMedβ3hAla][NMeL])) | 19 | > 500
9 | CC[C@H](C)[C@@H]1NC(=O)[C@H](CC(C)C)N(C)C(=O)C[C@@H](C)N(C)C(=O)[C@H](CC(C)C)NC(=O)C(C)(C)N(C)C(=O)[C@H](Cc2ccc(C(F)F)cc2)NC(=O)[C@H](CCc2ccc(C(F)(F)F)c(F)c2)NC(=O)CN(C)C(=O)[C@H](CC2CCCCC2)N(C)C(=O)CN(C)C(=O)CN(C)C1=O [Compound 858] (cyclo(I[Sar][Sar][NMeCha][Sar][hPhe(3-F,4-CF3)][Phe(4-CHF2)][NMeAib]L[NMedβ3hAla][NMeL])) | 330 | > 500
10 | CC[C@H](C)[C@@H]1NC(=O)[C@H](C)N(C)C(=O)C[C@@H](C)NC(=O)[C@H](C2CCCC2)N(C)C(=O)C2(CCCC2)NC(=O)[C@@H]2CCCN2C(=O)[C@H](CCc2ccc(C(F)(F)F)c(Cl)c2)NC(=O)[C@@H](C)N(C)C(=O)[C@H](Cc2ccc(C)cc2)N(C)C(=O)[C@@H]2CCN2C(=O)CN(C)C1=O [Compound 1461] (cyclo([Ac5c][NMeGly(cPent)][d(β3hA)][NMeA]I[Sar][Aze][NMePhe(4-Me)][dNMeA][hPhe(3-Cl-4-CF3)]P)) | 37 | > 500
11 | CCCOC[C@H]1C(=O)N(C)CC(=O)N[C@@H](CCc2ccc(C(F)(F)F)c(F)c2)C(=O)N2CCC[C@H]2C(=O)NC2(CCCC2)C(=O)N(C)[C@@H](C2CCCC2)C(=O)N(C)[C@H](C(=O)N(C)C)CC(=O)N(C)[C@@H](CC(C)C)C(=O)N[C@@H]([C@@H](C)CC)C(=O)N(C)[C@@H](C)C(=O)N2CC[C@H]2C(=O)N1C [Compound 289] ([NMeL]I[NMeA][Aze][NMeS](Propyl)[Sar][hPhe(3-F,4-CF3)]P[Ac5c][NMeGly(cPent)][NMeD]-NMe2; lactam N-11) | 0.3 | ≤ 20
12 | CC[C@H](C)[C@@H]1NC(=O)[C@H](C)N(C)C(=O)C[C@@H](C(=O)N2CCCCC2)N(C)C(=O)[C@H](C(C)C)N(C)C(=O)C2(CCCC2)NC(=O)[C@@H](CC(=O)N2CCC(F)(F)CC2)N(C)C(=O)[C@H](CCc2ccc(C(F)(F)F)c(Cl)c2)NC(=O)CN(C)C(=O)[C@H](CC2CCCCC2)N(C)C(=O)CN(C)C(=O)CN(C)C1=O [Compound 1025] ([NMeA]I[Sar][Sar][NMeCha][Sar][hPhe(3-Cl-4-CF3)][dNMeD](N(CH2CH2)2CF2)[Ac5c][NMeV][NMeD]-Piperidide; lactam N-11) | 4.3 | > 500
13 | CC[C@H](C)[C@@H]1NC(=O)[C@H](C)N(C)C(=O)C[C@@H](C(=O)N2CCCCC2)N(C)C(=O)[C@H](C(C)C)N(C)C(=O)C2(CCCC2)NC(=O)[C@H](Cc2ccccc2)NC(=O)[C@H](CCc2ccc(C(F)(F)F)c(Cl)c2)NC(=O)CN(C)C(=O)[C@H](CC2CCCCC2)N(C)C(=O)CN(C)C(=O)CN(C)C1=O [Compound 1125] ([NMeA]I[Sar][Sar][NMeCha][Sar][hPhe(3-Cl-4-CF3)]F[Ac5c][NMeV][NMeD]-Piperidide; lactam N-11) | 2.5 | > 500
14 | CC[C@H](C)[C@@H]1NC(=O)[C@H](C(C)C)N(C)C(=O)C[C@@H](C(=O)N2CCCC2)NC(=O)[C@H](CC(C)C)N(C)C(=O)C2(CCCC2)NC(=O)[C@H](CC(C)C)N(C)C(=O)[C@H](CCc2ccc(C(F)(F)F)cc2)NC(=O)CN(C)C(=O)[C@H](Cc2ccc(Cl)cc2)N(C)C(=O)CN(C)C(=O)CN(C)C1=O [Compound 769] ([NMeV]I[Sar][Sar][NMePhe(4-Cl)][Sar][hPhe(4-CF3)][NMeL][Ac5c][NMeL]D-Pyrrolidide; lactam N-11) | 52 | > 500
15 | CC[C@H](C)[C@@H]1NC(=O)[C@H](CC(C)C)N(C)C(=O)C[C@@H](C(=O)N2CCCCC2)N(C)C(=O)[C@H](C(C)C)N(C)C(=O)[C@@H](C)NC(=O)[C@@H]2CCCN2C(=O)[C@H](CCc2ccc(C(F)(F)F)c(Cl)c2)NC(=O)CN(C)C(=O)[C@H](CC2CCCCC2)N(C)C(=O)[C@@H]2CCN2C(=O)[C@H](C)N(C)C1=O [Compound 1174] ([NMeL]I[NMeA][Aze][NMeCha][Sar][hPhe(3-Cl-4-CF3)]P[dA][NMeV][NMeD]-Piperidide; lactam N-11) | 62 | > 500
16 | CC[C@H](C)[C@@H]1NC(=O)[C@H](CC(C)C)N(C)C(=O)C[C@@H](C(=O)N2CCCC2)N(C)C(=O)[C@H](C2CCCC2)N(C)C(=O)C2(CCCC2)NC(=O)[C@@H]2CCCN2C(=O)[C@H](CCc2ccc(C(F)(F)F)c(F)c2)NC(=O)CN(C)C(=O)[C@H](CC2CCCCC2)N(C)C(=O)[C@@H]2CCN2C(=O)[C@H](C)N(C)C1=O [Compound 1091] ([NMeL]I[NMeA][Aze][NMeCha][Sar][hPhe(3-F,4-CF3)]P[Ac5c][NMeGly(cPent)][NMeD]-Pyrrolidide; lactam N-11) | 1 | ≤ 20
